Earlier results, collected in patent publication US20200093158A1, “COMPOSITIONS AND COMBINATIONS FOR USE AS FOOD SUPPLEMENTS FOR ANIMALS” (OmniGen Research, LLC, priority 2014, published 2020).

Experiments:
larvae of common carp = settings: 1.76 parts per million of NH3, after 24 hours
[1] = tested on: turbot (Scophthalmus maximus) juveniles
[2] = 71.5 parts per million in diet for 8 weeks; 72 hours ammonia at 0.02, 0.2, 2 ppm (not at 20 ppm); vs control shrimp

N [NH3, ammonia]
mortality (larvae of common carp): 50% | physiological disturbances ([1]; adapted small turbot, up to 0.4-0.5 parts per million): no major physiological disturbances | mortalities ([1]; turbot juveniles, 4-6 weeks, up to 0.4 parts per million unionized ammonia, 16.5-17.5° C., pH 7.92-8.03): no mortalities

CC1=C(/C=C/C(C)=C/C=C/C(C)=C/C=C/C=C(C)/C=C/C=C(C)/C=C/C2=C(C)C(=O)[C@@H](O)CC2(C)C)C(C)(C)C[C@H](O)C1=O [astaxanthin]
survival rates under ammonia exposure [2]: higher
